What was measured:
MM = conditions: cited from earlier work
c-Myc = assay: Immunoblotting of degronimid-treated MM.1S cells: c-Myc; type: cell-based, human; conditions: 0.01-1 μM, 4 h
Experimental: MM.1S cells were seeded in 6-well plates at 3×10^6 cells/well (˜24 h prior to addition of drug). […] Cell pellets were thawed on ice, lysed using RIPA buffer (ThermoFisher) with protease/phosphatase inhibitor cocktail (Cell Signal Technology, Danvers, Mass.) by incubating on ice 30 min. The lysates were clarified by spinning at 10,000 g for 10 min at 4° C. and the concentration of the lysate was determined using BCA protocol (ThermoFisher). Samples were prepared for Western blot using LDS sample buffer (NuPage, Invitrogen, Carlsbad, Calif., USA) with sample reducing agent (NuPage, Invitrogen) and heated to 95° C. for 5 min. Samples were loaded (20 ug/sample) into Tris-acetate or Bis-Tris gels (NuPage, Invitrogen) and run as per kit instructions using appropriate running buffers. Gels were transferred as described (Matthews et al., 2015) onto PVDF membrane using SDS-based transfer buffer (NuPage, Invitrogen). Membranes were blocked (5% skim milk; or 5% bovine serum albumin in TBS-T) for at least 30 min then probed with primary antibodies overnight (4° C.). […] Each protein of interest (BRD2, BRD3, BRD4, c-myc and CDK9) was assessed in a separate gel and corresponding membrane (which was simultaneously incubated with antibodies for both the target protein of interest and GAPDH, to provide a loading control within the same blot). […]

MM.1S cells = assay: CTG viability of CRISPR-edited MM.1S pools tolerant to bortezomib or JQ1; type: cell-based, human; conditions: after genome-scale gene editing and treatment with JQ1 (500 nM) or bortezomib (25 nM)
Experimental: Cell viability and growth of human MM cell lines were assessed using CellTitre-Glo (CTG) assay (Promega, Madison, Wis.) per kit instructions, or CS-BLI as described (Delmore et al., 2011). Briefly, cells were seeded (5×10^3 cells/well) into 96- or 384-well opaque plates, in supplemented media (40 or 50 uL) and incubated for 24 h prior to addition of drug. For co-culture experiments, HS27A cells were pre-seeded (5×10^3 cells/well) into each well in media prior (24 h) to the addition of MM cells. At each time point (24 h, 48 h, and/or 72 h) CTG reagent (10% volume) was added to each well, and plates were read using a microplate reader (BioTek Synergy 2, BioTek, Winooski, Va.).
(§1) iii. […] Following treatments, all cells were serially cultured without drug and allowed to regrow for as long as required to enable reseeding (60×10^6 cells per flask, 100 mL) and retreatment with individual drugs while maintaining ˜1000× coverage throughout. Concomitant with retreatment, remaining cells were frozen (−80° C.; 20% FBS/DMSO) for later analysis or assessed for drug resistance/sensitivity using CTG assays. Between treatments, and in order to maintain the health of cultures, dead cells were periodically removed using Ficoll centrifugation (1,500 rpm for 10-20 min). For all CRISPR drug treatment experiments, aliquots of MM.1S-Cas9+ cells transduced with the GeCKO(Sanjana et al., 2014; Shalem et al., 2014) or Brunello (Doench et al., 2016) sgRNA libraries were frozen immediately prior to experimentation to determine the baseline distribution of sgRNAs in the cell population.

MM.1S Cas9+ cells = assay: Dose-response assay of cells with individual sgRNA knock-outs, CTG; type: cell-based, human; conditions: compared to parental MM.1S cells
Experimental: Non-targeting control sgRNAs and COPS7B sgRNAs were from GeCKOv2. Four sgRNAs were generated per each gene, except from COPS7B, for which 6 sgRNAs were available (Table S2). All sgRNAs were synthesized by CustomArray Inc (Bothell, Wash.). Cloning was performed according to the protocol published by Zhang et al. (media.addgene.org/cms/filer_public/4f/ab/4fabc269-56e2-4ba5-92bd-09dc89c1e862/zhang_lenticrisprv2_and_lentiguide_oligo_cloning_protocol_1.pdf) using a pHKO9 vector. Briefly, to clone the sgRNA guide sequence, plasmids were digested with BsmBI (New England Biolabs, Ipswich, Mass.) at 55° C. for 1 hour. Oligonucleotides for each sgRNA guide sequence were annealed and phosphorylated using T4 Ligation Buffer and T4 polynucleotide kinase (New England Biolabs) at 37° C. for 30 minutes and then annealed by heating to 95° C. for 5 minutes and cooling to 25° C. at 1.5° C./minute. Using T4 ligation buffer and T4 ligase (New England Biolabs), annealed oligos were ligated into gel purified vectors (Qiagen) at 65° C. for 10 minutes. 2.5 ug of the ligation product were transformed in 30 uL E. coli electrocompetent cells (Lucigen E.cloni 10 G ELITE PLUS, Invitrogen). Subsequently, 500 uL of transformed cells were plated on LB Agar-AmpR (ThermoFisher Scientific) and incubated overnight at 37° C. Three colonies per plate were then picked and inoculated in a mini-prep culture (Qiagen). The product was then digested with BsmBI and XhoI (New England Biolabs) at 37° C. for 1 h and compared to the uncut control on 1% agarose gel. One out of three colonies (10 uL) was then precultured in 3 mL LB Broth-AmpR and shaken at 37° C. for 6 h. Afterwards it was transferred to a 250 mL LB Broth-AmpR flask and incubated overnight at 37° C. Each culture was then inoculated into a maxiprep culture (Qiagen).
Also, CRBN, VHL, TCEBJ, TCEB2, UBE2R2 and FBXW2 sgRNA are selected from Brunello library and cloned using pLVX-hyg-sgRNA1 Vector system (Takara Bio USA, CA) according to the manufacturer's manual. b(takarabio.com/assets/documents/User %20Manual/Lenti-X_CRISPR-Cas9_System_User_Manual_121316.pdf)
ii. Lentiviral transductions with constructs for individual sgRNAs: 500×10^3 to 1×10^6 MM.1S Cas9 cells were plated in 50 uL of complete RPMI1640 medium per well in a 24-well plate, and additional 100 uL of complete RPMI1640 medium were added to cover the well completely. Cells were incubated in cell medium containing polybrene (5 to 8 μg/mL; Santa Cruz Biotechnology), and viral prep. 24 hours after addition of viral preps, media were changed and, after another 48 h, puromycin selection (1 to 2 ug/ml per well) was started. After 7 days of puromycin selection, transduced MM.1S Cas9+ cells were collected and expanded in T75 flasks.
iii. […] In the case of Thal-SNS-032 or ARV771, cells are plated 384-well plate and treated each concentration described at figure and viability assays were performed at 72 hrs.

pools of MM cells = assay: Sequential exposure to CRBN- and VHL-based degraders, CTG; type: cell-based, human; conditions: compared to treatment-naïve cells
From the text: We addressed this question using pools of MM cells derived from several of our genome-scale CRISPR-based screens.

MM.1S-Cas9+ cells = assay: Genome-scale CRISPR/Cas9 gene editing (LOF) resistance screens; type: cell-based, human; conditions: long-term treatment; NGS of sgRNAs
Experimental: MM.1S cells transduced with lentiviral construct for SpCas9 were kindly provided from Quinlan Sievers (Ebert Lab, BWH/DFCI). MM.1S cells were also transduced with lentiviral construct for dCas9-VP64 (purchased from Addgene).
ii. Lentiviral transductions with sgRNA libraries: For the screen with the GECKOv2 sgRNA library, tumor cell transductions were performed in batches of 8×10^7 cells per sub-library for each replicate. Cells were incubated for 16 hrs in cell medium containing polybrene (2 μg/mL; Santa Cruz Biotechnology), 10 mM HEPES (pH 7.4) (Sigma-Aldrich) and viral prep (4 mL) diluted to achieve an MOI of 0.4. After the end of the incubation with the viral preps, cells were washed and incubated for an additional day. Transduced cells were cultured at an initial density of 1×10^6 cells/mL and were treated with puromycin (1 μg/mL) for up to 14 days immediately after transduction. After puromycin selection, MM.1S-Cas9^+ cells transduced with each GeCKOv2 sublibrary were plated at 60×10^6 cells per flask (T175, 100 mL) to enable coverage of ˜1000× and were sub-cultured at four to five-day intervals to prevent confluence. At each passage, cells were harvested, washed with PBS (Corning, N.Y.), pelleted (5000 rpm, 5 min, 4° C.) and frozen as cell pellets (−80° C.) for next generation sequencing, and also replated at 60×10^6 cells to maintain 1000× coverage.
For the genome-scale screens with the Brunello sgRNA library, tumor cell transductions were performed in batches of 5×10^7 cells per library for six replicates. Cells were incubated (18 h) in cell medium containing polybrene (5 μg/mL; Santa Cruz Biotechnology), 10 mM HEPES (pH 7.4) (Sigma-Aldrich) and viral prep (30 mL) diluted 1:1. Transduced cells were cultured at an initial density of 1×10^6 cells/mL and were treated with puromycin (1 μg/mL) for up to 5 days additional two days from transduction. After stable transduction, pooled MM.1S cells were plated at 40×10^6 cells per flask (T175, 100 mL) to enable coverage of 500× and were sub-cultured at three- to four day intervals to prevent confluence. At each passage, cells were harvested, washed with PBS (Corning), pelleted (5000 rpm, 5 min, 4° C.) and frozen as cell pellets (−80° C.) for next generation sequencing, and also replated at 40×10^6 cells (˜500× coverage).
as §1
For “long-term” treatment screens with Thal-SNS-032-, ARV-771- and MZ-1-resistant cells, we continuously treated MM.1S-Cas9+ cells (40×10^6, —500× coverage) transduced with the Brunello sgRNA library (4 weeks post-puromycin selection) with either each compound's (IC20) or vehicle control. Cells were serially passaged every 3-4 days to prevent confluence, each time replating at ˜500× coverage (100 mL) at the same time replenishing each compound or vehicle. Drug treatments were paused if cell numbers fell below 10×10^6 per flask, allowing cells to recover and regrow, and treatments were resumed at a lower concentration when cell numbers reached 40×10^6. At each passage, cells were assayed for drug sensitivity/resistance using CTG. […]

SMILES	induction of apoptosis (MM; most cell types tested)	anti-tumor activity (MM; preclinical in vitro and in vivo models of MM)	c-Myc protein levels (c-Myc)	responsiveness of drug-exposed pools to the same agent (MM.1S cells)	response of cells with sgRNAs against COPS7B or COPS8 (MM.1S Cas9+ cells)	shift of dose response curve in pools previously exposed to CRBN-based degraders (pools of MM cells)	sgRNA enrichment in resistant cells, long-term screen (MM.1S-Cas9+ cells)
Cc1sc2c(c1C)C(c1ccc(Cl)cc1)=N[C@@H](CC(=O)OC(C)(C)C)c1nnc(C)n1-2 [JQ1]	does not induce apoptosis in most cell types tested	has anti-tumor activity	less pronounced depletion of c-Myc	decreased responsiveness	–	–	–
Cc1ncsc1-c1ccc(CNC(=O)[C@@H]2C[C@@H](O)CN2C(=O)[C@@H](NC(=O)COCCOCCOCCNC(=O)C[C@@H]2N=C(c3ccc(Cl)cc3)c3c(sc(C)c3C)-n3c(C)nnc32)C(C)(C)C)cc1 [MZ-1]	–	–	–	–	decreased response	limited, if any, shift	enrichment of sgRNAs for CUL2, VHL itself
CC(C)C[C@H](NC(=O)[C@H](Cc1ccccc1)NC(=O)c1cnccn1)B(O)O [bortezomib]	–	–	–	decreased responsiveness	–	–	–
